From US11702414B2, “Thiadiazole IRAK4 inhibitors” (Gilead Sciences, Inc., priority 2018, dated 2023) come the findings set out here.

One experiment deals with TNFα. Nature of the experiment: IRAK4 Monocyte TNFα Cell Based Assay. Also on record: species or system human. The note with it: Homo sapiens, Monocyte, human monocytes; second part of Table 2 (compounds 33-343); unit inferred; read-out: EC50MONO TNF HTRF.
In another experiment the target is IRAK4 enzyme (Homo sapiens (Human), UniProt Q9NWZ3). Nature of the experiment: IRAK4 Biochemical Assay (TR-FRET, STK1 KinEASE).
IRAK4 enzyme, sequence (Q9NWZ3 whole entry): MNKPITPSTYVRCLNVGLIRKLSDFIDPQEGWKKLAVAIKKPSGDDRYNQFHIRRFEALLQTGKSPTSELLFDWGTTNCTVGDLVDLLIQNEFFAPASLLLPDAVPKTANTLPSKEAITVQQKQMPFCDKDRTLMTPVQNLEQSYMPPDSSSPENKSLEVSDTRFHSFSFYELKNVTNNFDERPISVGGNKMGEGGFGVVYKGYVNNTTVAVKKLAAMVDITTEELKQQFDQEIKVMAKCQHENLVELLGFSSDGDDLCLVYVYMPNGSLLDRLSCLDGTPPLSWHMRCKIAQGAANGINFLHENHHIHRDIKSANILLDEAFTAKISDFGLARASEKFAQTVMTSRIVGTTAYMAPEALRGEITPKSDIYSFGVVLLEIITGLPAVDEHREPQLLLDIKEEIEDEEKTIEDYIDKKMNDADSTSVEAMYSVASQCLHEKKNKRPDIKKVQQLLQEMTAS

Consider `CC(=O)N1CCC2(CC1)CN(c1nnc(-c3cnc(-c4ccc5cc(C#N)cnn45)cc3NC3COC3)s1)C2` [Example 75, 7-(5-(5-(7-acetyl-2,7-diazaspiro[3.5]nonan-2-yl)-1,3,4-thiadiazol-2-yl)-4-(oxetan-3-ylamino)pyridin-2-yl)pyrrolo[1,2-b]pyridazine-3-carbonitrile], for which, in the experiment on TNFα, the EC50 is 3.2 nM. This compound came in with an IC50 on IRAK4 enzyme of 0.24 nM.

Consider `CC(=O)N1CCC2(CC1)CN(c1nnc(-c3cnc(-c4ccc5cc(C#N)cnn45)cc3NC3CCOCC3)s1)C2` [Example 76, 7-(5-(5-(7-acetyl-2,7-diazaspiro[3.5]nonan-2-yl)-1,3,4-thiadiazol-2-yl)-4-((tetrahydro-2H-pyran-4-yl)amino)pyridin-2-yl)pyrrolo[1,2-b]pyridazine-3-carbonitrile], for which the EC50 in the experiment on TNFα was 4.4 nM. Besides, on IRAK4 enzyme, half-maximal inhibition (IC50) required 0.85 nM.

Consider `CC(=O)NC1CCC2(CC1)CN(c1nnc(-c3cnc(-c4ccc5cc(C#N)cnn45)cc3N[C@H](C)C#N)s1)C2` [Example 77, (R)-N-(2-(5-(4-((1-cyanoethyl)amino)-6-(3-cyanopyrrolo[1,2-b]pyridazin-7-yl)pyridin-3-yl)-1,3,4-thiadiazol-2-yl)-2-azaspiro[3.5]nonan-7-yl)acetamide], for which the EC50 with TNFα came out at 3.9 nM. Besides, the IC50 on IRAK4 enzyme turned out to be 1.06 nM.

Turning to `CC(=O)NC1CCC2(CC1)CN(c1nnc(-c3cnc(-c4ccc5cc(C#N)cnn45)cc3NC3COC3)s1)C2` [Example 78, N-(2-(5-(6-(3-cyanopyrrolo[1,2-b]pyridazin-7-yl)-4-(oxetan-3-ylamino)pyridin-3-yl)-1,3,4-thiadiazol-2-yl)-2-azaspiro[3.5]nonan-7-yl)acetamide], the EC50 in the experiment on TNFα is 8.9 nM. The same compound registered an IC50 at IRAK4 enzyme of 0.85 nM.

For the compound `CC(C)Nc1cc(-c2ccc3cc(C#N)cnn23)ncc1-c1nnc(C(C)(C)O)s1` [Example 80, 7-(5-(5-(2-hydroxypropan-2-yl)-1,3,4-thiadiazol-2-yl)-4-(isopropylamino)pyridin-2-yl)pyrrolo[1,2-b]pyridazine-3-carbonitrile], the EC50 in the experiment on TNFα stood at 114 nM. At IRAK4 enzyme, this compound gave a concentration for half-maximal inhibition (IC50) of 1.16 nM.

Regarding `CC(C)Nc1cc(-c2ccc3cc(C#N)cnn23)ncc1-c1nnc(N2CC3(CCC(C)(O)CC3)C2)s1` [Example 82, 7-(5-(5-(7-hydroxy-7-methyl-2-azaspiro[3.5]nonan-2-yl)-1,3,4-thiadiazol-2-yl)-4-(isopropylamino)pyridin-2-yl)pyrrolo[1,2-b]pyridazine-3-carbonitrile], the EC50 with TNFα stood at 23.1 nM. The midpoint of inhibition at IRAK4 enzyme, the IC50, lay at 1.18 nM.

Consider `CC(=O)N[C@H]1CC[C@@H](c2nnc(-c3cnc(-c4ccc5cc(C#N)cnn45)cc3NC(C)C)s2)OC1` [Example 84, N-((3S,6S)-6-(5-(6-(3-cyanopyrrolo[1,2-b]pyridazin-7-yl)-4-(isopropylamino)pyridin-3-yl)-1,3,4-thiadiazol-2-yl)tetrahydro-2H-pyran-3-yl)acetamide], for which, in the experiment on TNFα, the EC50 is 8.6 nM. Besides, it took 0.47 nM to reach half-maximal inhibition on IRAK4 enzyme (IC50).

With `CC(=O)NC1CCC2(CC1)CN(c1nnc(-c3cnc(-c4ccc5cc(C#N)cnn45)cc3NC3(C)COC3)s1)C2` [Example 99, N-(2-(5-(6-(3-cyanopyrrolo[1,2-b]pyridazin-7-yl)-4-((3-methyloxetan-3-yl)amino)pyridin-3-yl)-1,3,4-thiadiazol-2-yl)-2-azaspiro[3.5]nonan-7-yl)acetamide], the EC50 in the experiment on TNFα was found to be 5.8 nM. For the same compound, it took 0.63 nM to reach half-maximal inhibition at IRAK4 enzyme (IC50).

In the case of `CC(C)Nc1cc(-c2ccc3cc(C#N)cnn23)ncc1-c1nnc(C2CCN(C3COC3)CC2)s1` [Example 138, 7-(4-(isopropylamino)-5-(5-(1-(oxetan-3-yl)piperidin-4-yl)-1,3,4-thiadiazol-2-yl)pyridin-2-yl)pyrrolo[1,2-b]pyridazine-3-carbonitrile], the EC50 with TNFα was determined as 15 nM. In addition, at IRAK4 enzyme, inhibition was half-maximal at 0.61 nM (IC50).

Regarding `CC(C)Nc1cc(-c2ccc3cc(C#N)cnn23)ncc1-c1nnc(N2CC3CCC(C2)C3(O)C(F)(F)F)s1` (stereo not shown) [Example 159, 7-(5-(5-(8-hydroxy-8-(trifluoromethyl)-3-azabicyclo[3.2.1]octan-3-yl)-1,3,4-thiadiazol-2-yl)-4-(isopropylamino)pyridin-2-yl)pyrrolo[1,2-b]pyridazine-3-carbonitrile], in the experiment on TNFα, the EC50 is 25.7 nM. Besides, the IC50 against IRAK4 enzyme was determined as 6.38 nM.

On to `CC(C)Nc1cc(-c2ccc3cc(C#N)cnn23)ncc1-c1nnc(N2CC3(CCNC3=O)C2)s1` [Example 164, 7-(4-(isopropylamino)-5-(5-(5-oxo-2,6-diazaspiro[3.4]octan-2-yl)-1,3,4-thiadiazol-2-yl)pyridin-2-yl)pyrrolo[1,2-b]pyridazine-3-carbonitrile], for which the EC50 in the experiment with TNFα was 17.5 nM. Also, on IRAK4 enzyme, the IC50 was found to be 0.55 nM.

In the case of `CC(C)Nc1cc(-c2ccc3cc(C#N)cnn23)ncc1-c1nnc(N2CCC(O)(C(F)(F)F)CC2)s1` [Example 172, 7-(5-(5-(4-hydroxy-4-(trifluoromethyl)piperidin-1-yl)-1,3,4-thiadiazol-2-yl)-4-(isopropylamino)pyridin-2-yl)pyrrolo[1,2-b]pyridazine-3-carbonitrile], the EC50 in the experiment with TNFα worked out at 34.4 nM. In addition, inhibition on IRAK4 enzyme was half-maximal at 2.99 nM (IC50).

Consider `C[C@H](C#N)Nc1cc(-c2ccc3cc(C#N)cnn23)ncc1-c1nnc(N2CCC(C)(O)CC2)s1` [Example 180, (R)-7-(4-((1-cyanoethyl)amino)-5-(5-(4-hydroxy-4-methylpiperidin-1-yl)-1,3,4-thiadiazol-2-yl)pyridin-2-yl)pyrrolo[1,2-b]pyridazine-3-carbonitrile], for which, in the experiment with TNFα, the EC50 is 6.8 nM. On IRAK4 enzyme, this compound came in with an IC50 of 0.4 nM.

Take `CC1(O)CCN(c2nnc(-c3cnc(-c4ccc5cc(C#N)cnn45)cc3NC3(C)COC3)s2)CC1` [Example 181, 7-(5-(5-(4-hydroxy-4-methylpiperidin-1-yl)-1,3,4-thiadiazol-2-yl)-4-((3-methyloxetan-3-yl)amino)pyridin-2-yl)pyrrolo[1,2-b]pyridazine-3-carbonitrile]: the EC50 with TNFα came out at 18.4 nM. This compound registered an IC50 against IRAK4 enzyme of 0.36 nM.

Take `CC(C)Nc1cc(-c2ccc3cc(C#N)cnn23)ncc1-c1nnc(N2CC[C@@](C)(O)[C@@H](F)C2)s1` [Example 186, 7-(5-(5-((3S,4R)-3-fluoro-4-hydroxy-4-methylpiperidin-1-yl)-1,3,4-thiadiazol-2-yl)-4-(isopropylamino)pyridin-2-yl)pyrrolo[1,2-b]pyridazine-3-carbonitrile]: in the experiment on TNFα, the EC50 stood at 8.4 nM. For the same compound, it took 0.95 nM to reach half-maximal inhibition against IRAK4 enzyme (IC50).

For `CC(C)Nc1cc(-c2ccc3cc(C#N)cnn23)ncc1-c1nnc(N2CCC(O)(CF)CC2)s1` [Example 189, 7-(5-(5-(4-(fluoromethyl)-4-hydroxypiperidin-1-yl)-1,3,4-thiadiazol-2-yl)-4-(isopropylamino)pyridin-2-yl)pyrrolo[1,2-b]pyridazine-3-carbonitrile], in the experiment with TNFα, the EC50 came to 16.3 nM. At IRAK4 enzyme, this compound registered an IC50 of 1.02 nM.

Take `CC(C)Nc1cc(-c2ccc3cc(C#N)cnn23)ncc1-c1nnc(C(=O)N2CC[C@@H](CO)C2)s1` [Example 216, (R)-7-(5-(5-(3-(hydroxymethyl)pyrrolidine-1-carbonyl)-1,3,4-thiadiazol-2-yl)-4-(isopropylamino)pyridin-2-yl)pyrrolo[1,2-b]pyridazine-3-carbonitrile]: the EC50 in the experiment with TNFα worked out at 18.1 nM. 0.78 nM corresponded to half-maximal inhibition on IRAK4 enzyme (IC50).
